# Patent US12338256B2, “Aza-tetracyclic oxazepine compounds and uses thereof” (Genentech, Inc., priority 2022, dated 2025)
# Read-outs that look alike come from different tables or passages of the source.
# Columns and labels:
# Type in all cases: cell-based
# [1] = tested on: AsPC-1 (homozygous mutant KRAS G12D human pancreatic cell line); test: KRAS 3D-Cell Proliferation Assay, AsPC-1 (Example 503); details: AsPC-1 3D culture, 7 days, CellTiter-Glo 3D, read-out: Prolif AsPC-1 3D ATP IC50
# Summary of the method: (§1)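 IC50 values derive from 4-parameter Hill fits of normalized luminescence, where DMSO sets 0% and 1 μM staurosporine 100% inhibition. 3D cultures in RPMI-1640 with 10% fetal bovine serum were exposed to compound for 7 days before CellTiter-Glo 3D lysis.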
# [2] = tested on: H1975 (KRAS wild type human lung adenocarcinoma cell line); test: KRAS 3D-Cell Proliferation Assay, H1975 (Example 503); details: H1975 3D culture, 7 days, CellTiter-Glo 3D, read-out: Prolif H1975 3D ATP IC50
# Summary of the method: as §1
# [3] = tested on: HPAC (homozygous mutant KRAS G12D human pancreatic cell line); test: KRAS 3D-Cell Proliferation Assay, HPAC (Example 503); details: HPAC 3D culture, 7 days, CellTiter-Glo 3D, read-out: Prolif HPAC 3D ATP IC50
# Summary of the method: as §1
Compound,"IC50 ([1]; Homo sapiens, ASPC1, 168 h) [nM]","IC50 ([2]; Homo sapiens, NCI-H1975, 168 h) [nM]","IC50 ([3]; Homo sapiens, HPAC, 168 h) [nM]",IC50 [1] [nM],IC50 [2] [nM],IC50 [3] [nM]
"Cc1nc(N)cc(-c2nc3c4c(nc(OC[C@@]56CCCN5C[C@H](F)C6)nc4c2F)N2C[C@H]4CC[C@H](N4)[C@H]2[C@H](C(F)(F)F)O3)c1C(F)(F)F [Compound 242, 4-((5R,5aS,6S,9R)-1-Fluoro-12-(((2R,7aS)-2-fluorotetrahydro-1H-pyrrolizin-7a(5H)-yl)methoxy)-5-(trifluoromethyl)-5a,6,7,8,9,10-hexahydro-5H-4-oxa-3,10a,11,13,14-pentaaza-6,9-methanonaphtho[1,8-ab]heptalen-2-yl)-6-methyl-5-(trifluoromethyl)pyridin-2-amine]",7.8,1040,5.11,,,
"Cc1c(F)c(N)cc(-c2nc3c4c(nc(OC[C@@]56CCCN5C[C@H](F)C6)nc4c2F)N2C[C@H]4CC[C@H](N4)[C@H]2CO3)c1C(F)(F)F [Compound 61, 2-Fluoro-5-((5aS,6S,9R)-1-fluoro-12-(((2R,7aS)-2-fluorotetrahydro-1H-pyrrolizin-7a(5H)-yl)methoxy)-5a,6,7,8,9,10-hexahydro-5H-4-oxa-3,10a,11,13,14-pentaaza-6,9-methanonaphtho[1,8-ab]heptalen-2-yl)-3-methyl-4-(trifluoromethyl)aniline]",44.5,2610,21.3,,,
"Cc1c(F)c(N)cc(-c2nc3c4c(nc(OCC5(CN6CCO[C@H](C)C6)CC5)nc4c2F)N2C[C@H]4CC[C@H](N4)[C@H]2[C@H](C)O3)c1C(F)(F)F [Compound 168, 2-Fluoro-5-((5S,5aS,6S,9R)-1-fluoro-5-methyl-12-((1-(((R)-2-methylmorpholino)methyl)cyclopropyl)methoxy)-5a,6,7,8,9,10-hexahydro-5H-4-oxa-3,10a,11,13,14-pentaaza-6,9-methanonaphtho[1,8-ab]heptalen-2-yl)-3-methyl-4-(trifluoromethyl)aniline]",0.7,656,0.472,,,
Cc1c(F)c(N)cc(-c2nc3c4c(nc(OC[C@]5(CN6CC7(COC7)C6)CC5(F)F)nc4c2F)N2C[C@H]4CC[C@H](N4)[C@H]2[C@H](C)O3)c1C(F)(F)F (mixture of isomers) [165 a],,,,0.6,374,0.63
"Cc1nc(N)cc(-c2nc3c4c(nc(OC[C@@H]5CC[C@H]6COCCN65)nc4c2F)N2C[C@H]4CC[C@H](N4)[C@H]2[C@H](C(F)(F)F)O3)c1C(F)(F)F [Compound 253, 4-((5R,5aS,6S,9R)-1-Fluoro-12-(((6S,8aS)-hexahydro-1H-pyrrolo[2,1-c][1,4]oxazin-6-yl)methoxy)-5-(trifluoromethyl)-5a,6,7,8,9,10-hexahydro-5H-4-oxa-3,10a,11,13,14-pentaaza-6,9-methanonaphtho[1,8-ab]heptalene-2-yl)-6-methyl-5-(trifluoromethyl)pyridin-2-amine]",64.6,5080,19.8,,,
"Cc1c(F)c(N)cc(-c2nc3c4c(nc(OCC5(CN6CCOCC6)CC5)nc4c2F)N2C[C@H]4CC[C@H](N4)[C@H]2[C@H](C(F)(F)F)O3)c1C(F)(F)F [Compound 249, 2-Fluoro-5-((5R,5aS,6S,9R)-1-fluoro-12-((1-(morpholinomethyl)cyclopropyl)methoxy)-5-(trifluoromethyl)-5a,6,7,8,9,10-hexahydro-5H-4-oxa-3,10a,11,13,14-pentaaza-6,9-methanonaphtho[1,8-ab]heptalene-2-yl)-3-methyl-4-(trifluoromethyl)aniline]",1.1,417,1.37,,,
"Cc1nc(N)cc(-c2nc3c4c(nc(OCC5(CN6C7CCC6COC7)CC5)nc4c2F)N2C[C@H]4CC[C@H](N4)[C@H]2[C@H](C)O3)c1C(F)(F)F [Compound 206, 4-((5S,5aS,6S,9R)-12-((1-((3-Oxa-8-azabicyclo[3.2.1]octan-8-yl)methyl)cyclopropyl)methoxy)-1-fluoro-5-methyl-5a,6,7,8,9,10-hexahydro-5H-4-oxa-3,10a,11,13,14-pentaaza-6,9-methanonaphtho[1,8-ab]heptalene-2-yl)-6-methyl-5-(trifluoromethyl)pyridin-2-amine]",3.6,2840,3.16,,,
"Cc1nc(N)c(F)c(-c2nc3c4c(nc(OC[C@@]56CCCN5C[C@H](F)C6)nc4c2F)N2C[C@H]4CC[C@H](N4)[C@H]2[C@H](C)O3)c1C(F)(F)F [Compound 194, 3-Fluoro-4-((5S,5aS,6S,9R)-1-fluoro-12-(((2R,7aS)-2-fluorotetrahydro-1H-pyrrolizin-7a(5H)-yl)methoxy)-5-methyl-5a,6,7,8,9,10-hexahydro-5H-4-oxa-3,10a,11,13,14-pentaaza-6,9-methanonaphtho[1,8-ab]heptalen-2-yl)-6-methyl-5-(trifluoromethyl)pyridin-2-amine]",2.7,919,4.99,,,
"Cc1c(F)c(N)c(F)c(-c2nc3c4c(nc(OC[C@@]56CCCN5C[C@H](F)C6)nc4c2F)N2C[C@H]4CC[C@H](N4)[C@H]2[C@H](C)O3)c1C(F)(F)F [Compound 91, 2,6-Difluoro-3-((5S,5aS,6S,9R)-1-fluoro-12-(((2R,7aS)-2-fluorotetrahydro-1H-pyrrolizin-7a(5H)-yl)methoxy)-5-methyl-5a,6,7,8,9,10-hexahydro-5H-4-oxa-3,10a,11,13,14-pentaaza-6,9-methanonaphtho[1,8-ab]heptalen-2-yl)-5-methyl-4-(trifluoromethyl)aniline]",1.3,953,1.25,,,
"Cc1c(F)c(N)cc(-c2nc3c4c(nc(OCC5(CN6CC7(COC7)C6)CC5)nc4c2F)N2C[C@H]4CC[C@H](N4)[C@H]2[C@H](C)O3)c1C(F)(F)F [Compound 174, 5-((5S,5aS,6S,9R)-12-((1-((2-Oxa-6-azaspiro[3.3]heptan-6-yl)methyl)cyclopropyl)methoxy)-1-fluoro-5-methyl-5a,6,7,8,9,10-hexahydro-5H-4-oxa-3,10a,11,13,14-pentaaza[6,9]methanonaphtho[1,8-ab]heptalene-2-yl)-2-fluoro-3-methyl-4-(trifluoromethyl)aniline]",1.3,227,3.86,,,
"Cc1c(F)c(N)cc(-c2nc3c4c(nc(OCC5(CN6C[C@H]7C[C@@H]6CO7)CC5)nc4c2F)N2C[C@H]4CC[C@H](N4)[C@H]2[C@H](C)O3)c1C(F)(F)F [Compound 170, 5-((5S,5aS,6S,9R)-12-((1-(((1R,4R)-2-Oxa-5-azabicyclo[2.2.1]heptan-5-yl)methyl)cyclopropyl)methoxy)-1-fluoro-5-methyl-5a,6,7,8,9,10-hexahydro-5H-4-oxa-3,10a,11,13,14-pentaaza-6,9-methanonaphtho[1,8-ab]heptalene-2-yl)-2-fluoro-3-methyl-4-(trifluoromethyl)aniline]",0.8,506,0.92,,,
"Cc1c(F)c(N)cc(-c2nc3c4c(nc(OC[C@@]56CCCN5C[C@H](F)C6)nc4c2F)N2C[C@H]4CC[C@H](N4)[C@H]2[C@H](C)O3)c1CC(F)F [Compound 75, 4-(2,2-Difluoroethyl)-2-fluoro-5-((5S,5aS,6S,9R)-1-fluoro-12-(((2R,7aS)-2-fluorotetrahydro-1H-pyrrolizin-7a(5H)-yl)methoxy)-5-methyl-5a,6,7,8,9,10-hexahydro-5H-4-oxa-3,10a,11,13,14-pentaaza-6,9-methanonaphtho[1,8-ab]heptalen-2-yl)-3-methylaniline]",5.2,797,2.77,,,
"Cc1c(F)c(N)cc(-c2nc3c4c(nc(OCC5(CN6CCOCC6)CC5)nc4c2F)N2C[C@H]4CC[C@H](N4)[C@H]2[C@H](C)O3)c1C(F)(F)F [Compound 118, 2-Fluoro-5-((5S,5aS,6S,9R)-1-fluoro-5-methyl-12-((1-(morpholinomethyl)cyclopropyl)methoxy)-5a,6,7,8,9,10-hexahydro-5H-4-oxa-3,10a,11,13,14-pentaaza-6,9-methanonaphtho[1,8-ab]heptalen-2-yl)-3-methyl-4-(trifluoromethyl)aniline]",0.6,519,0.43,,,
"C#Cc1c(F)ccc2cccc(-c3nc4c5c(nc(OCC67CCN6CC(F)(F)C7)nc5c3F)N3C[C@H]5CC[C@H](N5)[C@H]3[C@H](C)O4)c12 (stereo partly drawn) [Compound 22, (5S,5aS,6S,9R)-12-((3,3-difluoro-1-azabicyclo[3.2.0]heptan-5-yl)methoxy)-2-(8-ethynyl-7-fluoronaphthalen-1-yl)-1-fluoro-5-methyl-5a,6,7,8,9,10-hexahydro-5H-4-oxa-3,10a,11,13,14-pentaaza-6,9-methanonaphtho[1,8-ab]heptalene]",60.3,20000,139,,,
"Cc1cc(N)c(F)c(-c2nc3c4c(nc(OC[C@@]56CCCN5C[C@H](F)C6)nc4c2F)N2C[C@H]4CC[C@H](N4)[C@H]2[C@H](C)O3)c1CC(F)(F)F [Compound 182, 2-Fluoro-3-((5S,5aS,6S,9R)-1-fluoro-12-(((2R,7aS)-2-fluorotetrahydro-1H-pyrrolizin-7°(5H)-yl)methoxy)-5-methyl-5°,6,7,8,9,10-hexahydro-5H-4-oxa-3,10°,11,13,14-pentaaza-6,9-methanonaphtho[1,8-ab]heptalen-2-yl)-5-methyl-4-(2,2,2-trifluoroethyl)aniline]",8.3,1910,4.12,,,
